Patent publication US10716769B2 (GUANGZHOU JTREAT BIOSCI. LTD., priority 2015, dated 2020)

Tests used:
[1] = tested on: human umbilical vein endothelial cell line (ECV304); assay: MTT in vitro cell inhibition; type: cell-based; settings: 3 days
Text: (§1) An effective amount of the above compounds and/or the compositions containing the same used as an active ingredient have an effect on inhibiting the tumor cells. The present invention detects the inhibitory effect of the hydroxy-substituted benzophenone compounds on the proliferation of the in vitro cultured human tumor cells by the methylthiazolyl tetrazolium method.
(§2) The method is used to detect cell viability. […] Particles can be dissolved by dimethyl sulfoxide (DMSO) isopropyl alcohol or 10% acidified SDS (sodium dodecyl sulfate), and a microplate reader is used to measure the OD value at A570 wavelength, which indirectly reflects the number of live cells. The method is used for detection of the cytokines bioactivity, as well as anti-tumor drugs and tumor radiosensitivity and cytotoxicity test, and has the characteristics of being simple, fast, economical, sensitive and accurate and having good reproducibility and no need to use radionuclides. This method has been widely used in screening preclinical anticancer drugs and detecting the drug sensitivity of fresh tumor cells. The method is as below:
(§3) (1) The tumor cell suspension prepared by 0.25% of trypsin digestion and adjusted to a cell concentration of 10^5/ml with RPMI1640 containing 10% fetal calf serum is added to a 96-well plate with 100 μl for each well, cultured 24 hours, and then different dosages of drugs are added with 100 μl/well, for which, the negative control groups, positive control groups and withering wells are set, and 4 parallel wells are set for each group.
(§4) (2) They are continually cultured in incubator containing 5% of CO2 at 37° C. for 24 to 48 hours. MTT solution (5 g/L) is added to each well before the termination of the experiment. The OD value at A570 nm is detected by microplate reader. The OD value at A570 of the negative group without the addition of drugs is taken as a control. The cell survival rate and cell inhibition rate of drugs are calculated according to the following formula: Cell survival rate=(OD value of test group/OD value of control group)×100% Cell inhibition rate (%)=(OD value of the control group−OD value of the test group/(OD value of the control group−OD value of the blank group)
(§5) 1. Tumor cell lines: human glioma cell line (U251), human colon cancer cell line (LOVO), human hepatoma cell line (HepG2), human lung cancer cell line (PC84045), human endometrial carcinoma cell line (JEC), human renal carcinoma (GRC), human gastric cancer cell line (MCG804), human cervical cancer cell line (HeLa), human hepatocellular carcinoma cell line (BEL-7402) and human umbilical vein endothelial cell line (ECV304) purchased from Animal Experimental Center of Zhongshan Medical College, and preserved by the present laboratory.
(§6) The tumor cell lines are cultured in RPMI-1640 medium containing 15% of the newborn bovine serum in a conventional manner, placed in the humidification incubator containing 5% of CO2 for being cultured at 37° C., and are observed for growth by an inverted microscope. A subculture is conducted every about 3-5 days, the cells in logarithmic growth phase are adopted to be digested with 0.25% of trypsin, and the serum-free RPMI-1640 medium is used for culturing the cell suspension; the blood counting plate makes counting, the trypan blue exclusion tests the cell activity, and the cell viability>95% is used for formal tests.
(§7) Liquid preparation: the compounds are labeled with the codes respectively, DMSO is used to dissolve each compound, the bacterial filter is used to remove bacteria, and each compound is prepared into 10^−4 g/ml, 10^−5 g/ml, 10^−6 g/ml and preserved at 4° C. for use. […]

[2] = tested on: human colon cancer cell line (LOVO); assay: MTT in vitro tumor cell inhibition; type: cell-based; settings: 3 days; for Inhibitory rate %: 10^−4 g/ml
Text: as §1, §2, §3, §4, §5, §6, §7

[3] = tested on: human hepatoma cell line (HepG2); assay: MTT in vitro tumor cell inhibition; type: cell-based; settings: 3 days
Text: as §1, §2, §3, §4, §5, §6, §7

[4] = tested on: human cervical cancer cell line (HeLa); assay: MTT in vitro tumor cell inhibition; type: cell-based; settings: 3 days
Text: as §1, §2, §3, §4, §5, §6, §7

[5] = tested on: human glioma cell line (U251); assay: MTT in vitro tumor cell inhibition; type: cell-based; settings: 3 days
Text: as §1, §2, §3, §4, §5, §6, §7

[6] = tested on: human lung cancer cell line (PC84045); assay: MTT in vitro tumor cell inhibition; type: cell-based; settings: 3 days
Text: as §1, §2, §3, §4, §5, §6, §7

[7] = tested on: human gastric cancer cell line (MCG804); assay: MTT in vitro tumor cell inhibition; type: cell-based; settings: 3 days
Text: as §1, §2, §3, §4, §5, §6, §7

[8] = tested on: human endometrial carcinoma cell line (JEC); assay: MTT in vitro tumor cell inhibition; type: cell-based; settings: 3 days
Text: as §1, §2, §3, §4, §5, §6, §7

MCF7 = assay: MTT in vitro tumor cell inhibition; type: cell-based; settings: 3 days
Text: as §1, §2, §3, §4, §6
Liquid preparation: the compounds are labeled with the codes respectively, DMSO is used to dissolve each compound, the bacterial filter is used to remove bacteria, and each compound is prepared into 10^−4 g/ml, 10^−5 g/ml, 10^−6 g/ml and preserved at 4° C. for use.
MTT method: a bottle of 4-5 days old cells in the exponential growth phase are adopted to be cultured, and added with an appropriate amount of Trypsin-EDTA solution, so as to enable the adherent cells to fall off, and are prepared with 10 ml of RPMI-1640 medium containing 15% newborn bovine serum into suspensions; after stained with trypan blue, the cell number is counted on the blood counting plate to ensure that the live cells is more than 97%; the cell suspensions are diluted by the complete medium so that each […] of solution contains 5000-400000 cells; the 96-well plate is used with 200 μl of cell suspensions added into each. The 96-well plate is placed at 37° C. in 5% of CO2 containing incubator for 24 hours; the test compounds are diluted at 3 dilutions with 5 wells in parallel for each concentration; the serum-free RPMI1640 is used as the control group. […]

HPV16/18 = assay: HPV detection via fluorescence quantitative PCR in genital warts tissue homogenate; set-up: species or system human papillomavirus; settings: genital warts tissue homogenate, 37° C., 24 hours, FQ-PCR
Text: (§8) The aforesaid compounds and/or compositions containing the same are effective in killing and inhibiting HPV type 6/11 and type 16/18, which can be used for the preparation of drugs for preventing and treating viral infection of HPV, preventing and treating genital warts, flat warts, common warts, vaginitis, cervicitis and cervical erosion, cervical cancer, esophageal cancer and other cancers caused by HPV. The present invention observes the effect of active ingredients and products by the detection of the change in the amount of the HPV virus through the real-time quantitative PCR. Such method has been applied in several publications (Youling C A I, et al., Chinese STD/AIDS, 2002, 8: 2,108; Yuansheng W U, Ruijiang F A N, et al., Practical Application of Integrated Chinese and Western Medicine in Clinics, 2003, 3: 2,1).
(§9) The microemulsion obtained in example 1 is used as a test sample and saline for blank control.
(§10) The standard clinical genital warts specimens from a variety of patients after being cut off are washed with saline for removing bloods, and are cut into pieces under aseptic conditions, added with saline in 3 times of their volumes to be uniformly mixed, grinded into homogenate and placed at −40° C. for use.
(§11) Each test sample drug microemulsion and the saline of 50 μl for each are respectively added with 50 μl the genital warts tissue homogenate, and incubated at 37° C. for 24 hours; tests are performed according to the operation procedure provided by the HPV6, 11 and 16, 18 type FQ-PCR diagnostic kits provided by Da'an Gene Diagnostic Center. 0.2 ml of DNA extracted by the conventional alkaline lysis method is put into the thin-walled reaction tube, and simultaneously added with primers, F-PROBE, DNTP, DNA polymerase, buffers and the like in a certain concentration; ABI PRISM™ 7700 fluorescence quantitative PCR amplifier is used to repeat 40 circulations each with 45 s at 93° C. and 120 s at 55° C. after predegeneration at 93° C. for 2 mins; the quantitative results are automatically analyzed by the computer software to calculate the quantitative results of the initial copy number. The data are shown in Table 2 (completed by Da'an Gene Clinical Test Center).

HPV 6/11 Virus = assay: as above; set-up: species or system human papillomavirus; settings: genital warts tissue homogenate, 37° C., 24 hours, FQ-PCR
Text: as §8, §9, §10, §11

Which results are given for O=C(c1ccc(O)c(O)c1)c1cc(O)c(O)c(O)c1O [2,3,3′,4,4′,5-hexahydroxybenzophenone]?
Inhibitory rate % ([1]; ECV304, 10^−4 g/ml): 70.81%; Inhibitory rate % ([1]; ECV304, 10^−5 g/ml): 43.47%; Inhibitory rate, sensitivity class ([1]; ECV304, 10^−6 g/ml): insensitive (<30% means insensitive); Inhibitory rate % [2]: 75.61%; Inhibitory rate, sensitivity class ([2]; 10^−5 g/ml): insensitive (<30% means insensitive); Inhibitory rate, sensitivity class ([2]; 10^−6 g/ml): insensitive (<30% means insensitive); Inhibitory rate % ([3]; HepG2, 10^−4 g/ml): 77.03%; Inhibitory rate % ([3]; HepG2, 10^−5 g/ml): 55.49%; Inhibitory rate, sensitivity class ([3]; HepG2, 10^−6 g/ml): insensitive (<30% means insensitive); Inhibitory rate % ([4]; 10^−4 g/ml): 58.94%; Inhibitory rate, sensitivity class ([4]; 10^−5 g/ml): insensitive (<30% means insensitive); Inhibitory rate, sensitivity class ([4]; 10^−6 g/ml): insensitive (<30% means insensitive); Inhibitory rate % ([5]; U251, 10^−4 g/ml): 64.27%; Inhibitory rate, sensitivity class ([5]; U251, 10^−5 g/ml): insensitive (<30% means insensitive); Inhibitory rate, sensitivity class ([5]; U251, 10^−6 g/ml): insensitive (<30% means insensitive); Inhibitory rate % ([6]; PC84045, 10^−4 g/ml): 80.43%; Inhibitory rate % ([6]; PC84045, 10^−5 g/ml): 70.86%; Inhibitory rate % ([6]; PC84045, 10^−6 g/ml): 41.369%; Inhibitory rate % ([7]; MCG804, 10^−4 g/ml): 71.91%; Inhibitory rate, sensitivity class ([7]; MCG804, 10^−5 g/ml): insensitive (<30% means insensitive); Inhibitory rate, sensitivity class ([7]; MCG804, 10^−6 g/ml): insensitive (<30% means insensitive); Inhibitory rate % ([8]; 10^−4 g/ml): 79.84%; Inhibitory rate % ([8]; 10^−5 g/ml): 32.36%; Inhibitory rate, sensitivity class ([8]; 10^−6 g/ml): insensitive (<30% means insensitive); Inhibitory rate % (MCF7; MCF7, 10^−4 g/ml): 65.36%; Inhibitory rate, sensitivity class (MCF7; MCF7, 10^−5 g/ml): insensitive (<30% means insensitive); Inhibitory rate, sensitivity class (MCF7; MCF7, 10^−6 g/ml): insensitive (<30% means insensitive)

How did the Inhibitory rate % ([1]; ECV304, 10^−4 g/ml) turn out when O=C(c1ccccc1)c1ccc(O)cc1O [2,4-dihydroxybenzophenone] was run?
The Inhibitory rate % was 96.17%.

What about the Inhibitory rate % ([1]; ECV304, 10^−5 g/ml) of the same molecule?
Its Inhibitory rate % is 73.12%.

What about the Inhibitory rate % ([1]; ECV304, 10^−6 g/ml) of the same molecule?
The Inhibitory rate % was 45.37%.

What about the Inhibitory rate % [2] of the same molecule?
Its Inhibitory rate % is 93.80%.

And the “Inhibitory rate, sensitivity class” value ([2]; 10^−5 g/ml)?
Its value is “insensitive (<30% means insensitive)”.

What about the “Inhibitory rate, sensitivity class” value ([2]; 10^−6 g/ml) of the same molecule?
The value was “insensitive (<30% means insensitive)”.

What about the Inhibitory rate % ([3]; HepG2, 10^−4 g/ml) of the same molecule?
Its Inhibitory rate % is 94.78%.

What about the Inhibitory rate % ([3]; HepG2, 10^−5 g/ml) of the same molecule?
The Inhibitory rate % was 66.74%.

What about the Inhibitory rate % ([3]; HepG2, 10^−6 g/ml) of the same molecule?
The Inhibitory rate % was 58.63%.

And the Inhibitory rate % ([4]; 10^−4 g/ml)?
The Inhibitory rate % was 95.65%.

What about the Inhibitory rate % ([4]; 10^−5 g/ml) of the same molecule?
Its Inhibitory rate % is 48.96%.

What about the Inhibitory rate % ([4]; 10^−6 g/ml) of the same molecule?
Its Inhibitory rate % is 37.32%.

And the Inhibitory rate % ([5]; U251, 10^−4 g/ml)?
The Inhibitory rate % was 85.31%.

And the Inhibitory rate % ([5]; U251, 10^−5 g/ml)?
Its Inhibitory rate % is 67.25%.

And the Inhibitory rate % ([5]; U251, 10^−6 g/ml)?
Its Inhibitory rate % is 31.21%.

And the Inhibitory rate % ([6]; PC84045, 10^−4 g/ml)?
The Inhibitory rate % was 92.65%.

What about the Inhibitory rate % ([6]; PC84045, 10^−5 g/ml) of the same molecule?
Its Inhibitory rate % is 89.88%.

And the Inhibitory rate % ([6]; PC84045, 10^−6 g/ml)?
The Inhibitory rate % was 44.39%.

What about the Inhibitory rate % ([7]; MCG804, 10^−4 g/ml) of the same molecule?
The Inhibitory rate % was 92.54%.

What about the Inhibitory rate % ([7]; MCG804, 10^−5 g/ml) of the same molecule?
Its Inhibitory rate % is 86.35%.

And the Inhibitory rate % ([7]; MCG804, 10^−6 g/ml)?
The Inhibitory rate % was 41.35%.

What about the Inhibitory rate % ([8]; 10^−4 g/ml) of the same molecule?
The Inhibitory rate % was 93.58%.

What about the Inhibitory rate % ([8]; 10^−5 g/ml) of the same molecule?
The Inhibitory rate % was 62.30%.

And the Inhibitory rate % ([8]; 10^−6 g/ml)?
Its Inhibitory rate % is 32.56%.

And the Inhibitory rate % (MCF7; MCF7, 10^−4 g/ml)?
Its Inhibitory rate % is 87.60%.

And the Inhibitory rate % (MCF7; MCF7, 10^−5 g/ml)?
Its Inhibitory rate % is 68.62%.

What about the Inhibitory rate % (MCF7; MCF7, 10^−6 g/ml) of the same molecule?
The Inhibitory rate % was 28.57%.

With CCCOC(=O)c1cc(O)c(O)c(O)c1 [Propyl gallate, propyl 3,4,5-trihydroxybenzoate, reference compound] as the molecule, how does the HPV16/18 (HPV16/18) read?
Its HPV16/18 is 0 copy/ml.

And the “HPV 6/11 Virus” value (HPV 6/11 Virus)?
Its value is 0 copy/ml.
